Experimental data from PMC5762338, “A novel orally available Syk/Src/Jak2 inhibitor, SKLB-850, showed potent anti-tumor activities in B cell lymphoma (BCL) models” (Oncotarget, 2017).

Legend:
[1] = Preliminary toxicity evaluation in treated mice; type: in vivo
Experimental: A preliminary toxicity evaluation to SKLB-850 was also carried out. […] Besides, toxic pathologic changes in liver, lung, kidney, spleen, and heart were not detected by microscopic examination (Figure 5C).
To investigate potential side effects or toxicity on mice during the treatment, anorexia skin ulceration, weight loss, diarrhea, and toxic death were observed continuously for relevant indexes. The tissues of heart, liver, spleen, lung, and kidney were stained with hematoxylin and eosin (H&E). ALT, AST, BUN and CREA in serum were measured by the National Chengdu Center for Safety Evaluation of Traditional Chinese Medicine using commercially available kits.

[2] = test system: CD184 expression of Ramos cells; experiment: CD184 (CXCR4) surface expression by flow cytometry; type: cell-based, Human
Experimental: And BCL cells could migrate toward the chemokine CXCL12 upon activation of its receptor CD184 [27].
The expression of surface molecules was analyzed by flow cytometry, using the following monoclonal antibody CD184 (CXCR4), and the relevant isotype controls mAbs (BD biosciences). A total of 10^6 mononuclear cells were incubated for 30 minutes at 4°C with saturating concentrations of mAbs, and the cells were washed twice and analyzed with a flow cytometer (BD FACSCalibur, BD, USA).

[3] = test system: CCL4 secretion of Ramos cells; experiment: ELISA of chemokine secretion after anti-IgM and anti-CD40 stimulation; type: cell-based, Human; details: anti-IgM and anti-CD40 induced, 0.1μM, 18 hours, n=3, stimulated without compound 134.80 ± 1.90 pg/mL
Experimental: (§1) We then measured the concentrations of CCL3 and CCL4 in supernatant of Ramos cells cultured in medium, or medium supplemented with anti-IgM and anti-CD40 in the presence or absence of SKLB-850 after 18 hours. CCL3 and CCL4 are chemokines, which appear to correlate with the signaling capacity of the BCR [26]. As shown in Figure 3A and 3B, SKLB-850 inhibited the increased secretion of CCL3 and CCL4 stimulated by anti-IgM and anti-CD40. The mean CCL3 and CCL4 concentrations in supernatants of Ramos cells after anti-IgM and CD40 stimulation were 3443.00 ± 134.80 pg/mL and 134.80 ± 1.90 pg/mL, respectively.
(§2) To evaluate the effect of SKLB-850 on CCL3 and CCL4 secretion after stimulation of Ramos cells with anti-IgM (30 μg/ml) and anti-CD40 (10 μg/ml), chemokine levels were measured in supernatants of activated BCL cells, as previously described. After 18 hours of anti-IgM and anti-CD40 co-culture, supernatants were harvested and assayed for CCL3 and CCL4 by quantitative enzyme-linked immunosorbent assays according to the manufacturer’s instructions (Quantikine, R&D Systems, Minneapolis, MN, USA).

[4] = test system: CCL3 secretion of Ramos cells; experiment: as above; type: cell-based, Human; details: anti-IgM and anti-CD40 induced, 0.1μM, 18 hours, n=3, stimulated without compound 3443.00 ± 134.80 pg/mL
Experimental: as §1, §2

## CN1CCN(c2ccc(Nc3ncc(F)c(Nc4ccc(Cl)cc4C(N)=O)n3)cc2)CC1 [SKLB-850, 5-chloro-2-((5-fluoro-2-((4-(4-methylpiperazin-1-yl)phenyl)amino)pyrimidin-4-yl)amino) benzamide]
[1]; microscopic examination
  toxic pathologic changes in liver, lung, kidney, spleen, and heart (H&E, in words): not detected
[1]; treated groups, monitored once every three days
  mouse body weight (in words): no significant differences in weights
[1]; treated mice
  levels of ALT, AST, BUN, and CREA of serum (in words): no obvious changes
[2]
  expression of CD184 (in words): decreased the expression of CD184
[3]
  CCL4 level in supernatant: 15.20 ± 0.30 pg/mL
[4]
  CCL3 level in supernatant: 2303.10 ± 109.40 pg/mL
